Among the test systems are ACHN renal; MDA-MB-435; NCI/ADR-RES ovarian; OVCAR-3 ovarian; OVCAR-5 ovarian; SK-OV-3 ovarian; U251 CNS; UACC-62 melanoma; UO-31 renal; SK-MEL-28 melanoma.
What all share (experiment): growth of human tumour cells (NCI), 48 h

“And” between values parts separate entries of the source, which are not always exact repeats. Equal entries are not always repeated.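 Where inhibition never reached the appropriate level, the endpoint shown equals the highest concentration tested. Otherwise, values were interpolated linearly from a five-concentration, 48-hour dose response in 96-well plates. At the GI50, growth is halved. TGI: concentration producing complete growth inhibition.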 Bounds are passed on as bounds.

Consider `Cc1ccc(-n2c3c(c4c(CN5CCOCC5)c(O)ccc42)CCc2ccccc2C3=O)cc1`, for which the GI50 in the assay with ACHN renal is > 100 µM; in the assay with MDA-MB-435 it was 29.6 µM; in the assay with NCI/ADR-RES ovarian, 39.1 µM; in the assay with OVCAR-3 ovarian, 71.2 µM; with OVCAR-5 ovarian, > 100 µM; in the assay on SK-OV-3 ovarian, > 100 µM. Also, the GI50 with U251 CNS, in the assay with UACC-62 melanoma and in the assay with UO-31 renal was > 100 µM in each case. For the same compound, the TGI with ACHN renal, in the assay with MDA-MB-435, with NCI/ADR-RES ovarian, with OVCAR-3 ovarian, in the assay with OVCAR-5 ovarian and in the assay on SK-OV-3 ovarian was > 100 µM in each case. Besides, the TGI in the assay with U251 CNS, with UACC-62 melanoma and in the assay with UO-31 renal was > 100 µM each time.
For the compound `C=C(CNCCc1ccc(O)cc1)[C@@H]1CC[C@]2(CO)CC[C@]3(C)[C@H](CC[C@@H]4[C@@]5(C)CCC(N)C(C)(C)[C@@H]5CC[C@]43C)[C@@H]12` (stereo partly drawn), the GI50 with ACHN renal is 1.78 µM; in the assay with MDA-MB-435, 1.52 µM; in the assay on OVCAR-3 ovarian it was 1.65 µM; in the assay on SK-MEL-28 melanoma, 1.76 µM; in the assay on SK-OV-3 ovarian, 1.84 µM; in the assay with U251 CNS, 0.917 µM. For the same compound, the GI50 with UO-31 renal was 1.42 µM. For the same compound, the TGI turned out to be 3.19 µM in the assay on ACHN renal; 2.85 µM in the assay with MDA-MB-435; 3.1 µM in the assay with OVCAR-3 ovarian; 3.28 µM with SK-MEL-28 melanoma; 3.34 µM in the assay with SK-OV-3 ovarian; 2.12 µM with U251 CNS. This compound also had a TGI in the assay with UO-31 renal of 2.76 µM.
With `COc1ccc2[nH]c(-c3ccccc3)cc2c1`, the GI50 with ACHN renal, in the assay with MDA-MB-435, in the assay on NCI/ADR-RES ovarian, in the assay with OVCAR-3 ovarian, in the assay on OVCAR-5 ovarian and in the assay on SK-MEL-28 melanoma was > 100 µM each time. Moreover, the GI50 was > 100 µM in the assay with SK-OV-3 ovarian, > 100 µM in the assay on U251 CNS, 92.5 µM in the assay on UACC-62 melanoma and > 100 µM in the assay with UO-31 renal. Further, the TGI in the assay on ACHN renal, in the assay on MDA-MB-435, in the assay with NCI/ADR-RES ovarian, in the assay on OVCAR-3 ovarian, in the assay on OVCAR-5 ovarian and in the assay on SK-MEL-28 melanoma was > 100 µM each time. The TGI in the assay on SK-OV-3 ovarian, with U251 CNS, in the assay with UACC-62 melanoma and in the assay with UO-31 renal was > 100 µM throughout.
Take `O=c1oc2ccc(F)cc2c(=O)n1-c1ccc(Br)cc1F`: the GI50 in the assay with ACHN renal is 0.59 µM; in the assay with MDA-MB-435 it was 0.623 µM; in the assay on NCI/ADR-RES ovarian it was 0.85 µM; in the assay on OVCAR-3 ovarian it was 0.436 µM; in the assay with OVCAR-5 ovarian, 3.94 µM; with SK-MEL-28 melanoma, 0.373 µM. The GI50 in the assay on SK-OV-3 ovarian was 0.427 µM; in the assay on U251 CNS it was 0.786 µM; in the assay on UACC-62 melanoma, 0.284 µM; in the assay on UO-31 renal, 0.194 µM. Also, the TGI with ACHN renal is 13.6 µM; in the assay on MDA-MB-435 it was 6.64 µM; in the assay on NCI/ADR-RES ovarian, 8.9 µM; in the assay with OVCAR-3 ovarian, 12.9 µM; in the assay with OVCAR-5 ovarian it was > 100 µM; in the assay on SK-MEL-28 melanoma it was 2.48 µM. Besides, the TGI in the assay on SK-OV-3 ovarian was 6.25 µM; in the assay on U251 CNS, > 100 µM; in the assay on UACC-62 melanoma it was 1.16 µM; in the assay with UO-31 renal, 1.7 µM.
On to `CCN(CC)CCOc1ccc(/C=C2\CC3C4CC=C5C[C@@H](OC(C)=O)CC[C@]5(C)C4CC[C@]3(C)C2=O)cc1OC` (stereo partly drawn), for which the GI50 in the assay with ACHN renal is 9.84 µM; in the assay with MDA-MB-435, 1.78 µM; with NCI/ADR-RES ovarian, 5.08 µM; with OVCAR-3 ovarian, 1.78 µM; in the assay on OVCAR-5 ovarian, 3.38 µM; in the assay on SK-OV-3 ovarian, 29.5 µM. Besides, the GI50 in the assay with U251 CNS is 11.4 µM; in the assay with UACC-62 melanoma it was 2.2 µM; with UO-31 renal, 11.1 µM. For the same compound, the TGI is 21.5 µM in the assay with ACHN renal; 3.58 µM with MDA-MB-435; > 100 µM in the assay with NCI/ADR-RES ovarian; 3.45 µM with OVCAR-3 ovarian; 12.4 µM in the assay on OVCAR-5 ovarian; 95.1 µM in the assay with SK-OV-3 ovarian. Moreover, the TGI with U251 CNS stood at 25.8 µM; in the assay with UACC-62 melanoma it was 4.09 µM; in the assay with UO-31 renal, 23.1 µM.
Consider `Cc1ccc(/C=C2\CNC/C(=C\c3ccc(C)cc3)C2=O)cc1`, for which the TGI was 3.81 µM and 5.93 µM in the assay on ACHN renal; 19.9 µM with MDA-MB-435; 3.56 µM and 33.9 µM in the assay on OVCAR-5 ovarian; 4.05 µM and 4.83 µM with SK-MEL-28 melanoma; 6.9 µM and 22.1 µM in the assay on SK-OV-3 ovarian; 0.707 µM and 1.76 µM in the assay with U251 CNS. In addition, the TGI is 4.36 µM in the assay with UACC-62 melanoma; 3.14 µM and 3.25 µM in the assay on UO-31 renal. For the same compound, the GI50 in the assay with OVCAR-3 ovarian was 1.27 µM; with OVCAR-5 ovarian, 1.89 µM; in the assay on SK-OV-3 ovarian it was 3.81 µM; in the assay on U251 CNS, 0.227 µM.
With `COC(=O)[C@H](Cc1ccccc1)NC(=O)c1csc([C@@H](C[C@H](C(C)C)N(C)C(=O)[C@@H](NC(=O)[C@H]2CCCN2C)C2CC2)OC(C)=O)n1`, the GI50 in the assay on ACHN renal is 1.44 µM; with MDA-MB-435, 0.027 µM; in the assay on NCI/ADR-RES ovarian it was 8.59 µM; in the assay with OVCAR-5 ovarian it was 1.66 µM; with SK-MEL-28 melanoma, 2.48 µM; in the assay on SK-OV-3 ovarian, 1.04 µM. Also, the figures for the GI50 in the assay on U251 CNS, in the assay with UACC-62 melanoma and in the assay with UO-31 renal were 0.521 µM, 1.38 µM and 2.17 µM, respectively. The TGI is > 33.3 µM in the assay on ACHN renal; 0.191 µM in the assay with MDA-MB-435; > 33.3 µM with NCI/ADR-RES ovarian; > 33.3 µM in the assay on OVCAR-5 ovarian; > 33.3 µM in the assay with SK-MEL-28 melanoma; > 33.3 µM with SK-OV-3 ovarian. The TGI in the assay on U251 CNS was > 33.3 µM; with UACC-62 melanoma, > 33.3 µM; in the assay on UO-31 renal, > 27.9 µM.
With `NC(N)=N/N=C/c1c(-c2ccc(Cl)c([N+](=O)[O-])c2)nc2n1CCS2`, the GI50 in the assay with ACHN renal was 15.7 µM; in the assay on MDA-MB-435 it was 9.63 µM; in the assay on NCI/ADR-RES ovarian, 15.8 µM; with OVCAR-3 ovarian it was 1.93 µM; with OVCAR-5 ovarian, 14.6 µM; with SK-MEL-28 melanoma it was 16.6 µM. In addition, the GI50 is 24.7 µM in the assay with SK-OV-3 ovarian, 1.64 µM with UACC-62 melanoma and 26 µM in the assay with UO-31 renal. Moreover, the TGI in the assay with ACHN renal was determined as 37.2 µM; with MDA-MB-435, 22.2 µM; with NCI/ADR-RES ovarian it was 32.7 µM; with OVCAR-3 ovarian, 3.91 µM; in the assay with OVCAR-5 ovarian it was 27.8 µM; in the assay with SK-MEL-28 melanoma, 35.5 µM. For the same compound, the TGI in the assay on SK-OV-3 ovarian is 75.1 µM; in the assay with UACC-62 melanoma, 3.64 µM; with UO-31 renal it was 89 µM.

The values above are taken from PubChem BioAssay (NCI).
